Data: patent publication US9271978B2 (Zenith Epigenetics Corp., priority 2012, dated 2016)
Blank lines part the entries; values can stand above or below the compound they belong to.

Assays:
[1] = tested on: c-myc; experiment: Inhibition of c-myc expression in MV4-11 cells (mRNA, real-time PCR); assay type: cell-based; design: key: Active: Compounds with an IC50 value less than 30 μM were deemed to be active.; Not Active: Compounds with an IC50 value less than 30 μM were deemed to be active; conditions: Human AML MV4-11 cells, 3 h incubation
In short: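 MV4-11 cells (2.5×10^4) treated with compound or 0.1% DMSO for 3 h at 37 °C. c-myc mRNA measured by RT real-time PCR duplexed with cyclophilin. IC50 from dose–response curve.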

[2] = tested on: ApoA-I mRNA; experiment: Up-regulation of hApoA-1 mRNA transcription in Huh7 cells; assay type: cell-based, human; design: key: Active: Compounds with an EC170 value less than 30 μM were deemed to be active; conditions: 48 h treatment, ApoA-I mRNA by real-time PCR, Active = EC170 less than 30 μM
Protocol: In this example, ApoA-I mRNA in tissue culture cells was quantitated to measure the transcriptional up-regulation of ApoA-I when treated with a compound of the present disclosure.
Huh7 cells (2.5×10^5 per well) were plated in a 96-well plate using 100 μL DMEM per well, (Gibco DMEM supplemented with penicillin/streptomycin and 10% FBS), 24 h before the addition of the compound of interest. After 48 h treatment, the spent media was removed from the Huh-7 cells and placed on ice (for immediate use) or at −80° C. (for future use) with the “LDH cytotoxicity assay Kit II” from Abcam. The cells remaining in the plate were rinsed with 100 μL PBS.
Then 85 μL of cell lysis solution was added to each well and incubated for 5-10 min at room temperature, to allow for complete cell lysis and detachment. mRNA was then prepared using the “mRNA Catcher PLUS plate” from Life Technologies, according to the protocol supplied. After the last wash, as much wash buffer as possible was aspirated without allowing the wells to dry. Elution Buffer (E3, 80 μL) was then added to each well. mRNA was then eluted by incubating the mRNA Catcher PLUS plate with Elution Buffer for 5 min at 68° C., and then 1 min at 4° C. Catcher plates with mRNA eluted were kept on ice for use or stored at −80° C.
The eluted mRNA isolated was then used in a one-step real-time PCR reaction, using components of the Ultra Sense Kit together with Life Technologies primer-probe mixes. Real-time PCR data was analyzed, using the Ct values, to determine the fold induction of each unknown sample, relative to the control (that is, relative to the control for each independent DMSO concentration).
Compounds with an EC170 value less than 30 μM were deemed to be active.

[3] = tested on: human AML MV-4-11 (CRL-9591) cells; experiment: Inhibition of cell proliferation in MV4-11 cells; assay type: cell-based; design: key: Active: Compounds with an IC50 value less than 30 μM were deemed to be active.; Not Active: Compounds with an IC50 value less than 30 μM were deemed to be active; conditions: human AML MV-4-11 cells, 72 h; active = IC50 <30 μM
In short: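 Exponentially growing MV-4-11 cells (5×10^4/well) were treated immediately with two-fold dilutions of compound from 30 μM to 0.2 μM, in triplicate, for 72 h at 37° C, 5% CO2. Viability was measured by MTS absorbance at 490 nm after 3–4 h. Proliferation relative to DMSO after blank correction gave IC50.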

[4] = biological target: T1, Brd4 bromodomain 1 (BRD4(1)) (Homo sapiens, UniProt O60885); experiment: Inhibition of tetra-acetylated histone H4 binding to Brd4 bromodomain 1 (TR-FRET); design: key: Active: Compounds with an IC50 value less than 30 μM were deemed to be active.; Not Active: Compounds with an IC50 value less than 30 μM were deemed to be active; conditions: tetra-acetylated histone H4 peptide, active = IC50 <30 μM
T1 construct: Illustrative results with the first bromodomain of Brd4; made in house; host or cells: E. coli BL21 (DE3)
In short: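 N-terminally His-tagged bromodomains (200 nM), expressed in E. coli, were incubated with biotinylated tetra-acetylated histone H4 peptide (25-50 nM), Eu-cryptate streptavidin and XL665 anti-His antibody in HEPES pH 7.4 buffer with KF, 0.2% DMSO, 2 h at room temperature. Inhibition read as decreased 665/620 nm TR-FRET; IC50 from dose-response curves.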

[5] = tested on: hIL-6 mRNA; experiment: Inhibition of hIL-6 mRNA transcription in U937 cells; assay type: cell-based, human; design: key: Active: Compounds with an IC50 value less than 30 μM were deemed to be active.; Not Active: Compounds with an IC50 value less than 30 μM were deemed to be active; conditions: LPS stimulation, active = IC50 <30 μM
In short: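 U937 cells differentiated 3 days with 60 ng/mL PMA, pretreated 1 h with compound, then stimulated with 1 ug/mL E. coli LPS for 3 h at 37° C. hIL-6 mRNA quantified by one-step qRT-PCR, Ct normalized to internal control, expressed as fold induction relative to control.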

Compound: Cc1noc(C)c1-c1cc(Nc2ccccn2)c(=O)n(Cc2ccccc2)c1 [Example 193, 1-benzyl-5-(3,5-dimethylisoxazol-4-yl)-3-(pyridin-2-ylamino)pyridin-2(1H)-one]
c-myc activity (IC50 <30 μM) [1]: Not Active
ApoA-1 activity (EC170 <30 μM) [2]: Active
Cell Proliferation activity (IC50 <30 μM) [3]: Active
FRET activity (IC50 <30 μM) BRD4(1) [4]: Not Active
IL-6 activity (IC50 <30 μM) [5]: Active

Compound: Cc1noc(C)c1-c1cc(Cl)c(=O)n(Cc2ccc(F)cc2)c1 [Example 181, 3-chloro-5-(3,5-dimethylisoxazol-4-yl)-1-(4-fluorobenzyl)pyridin-2(1H)-one]
c-myc activity (IC50 <30 μM) [1]: Active
ApoA-1 activity (EC170 <30 μM) [2]: Active
Cell Proliferation activity (IC50 <30 μM) [3]: Not Active
FRET activity (IC50 <30 μM) BRD4(1) [4]: Active
IL-6 activity (IC50 <30 μM) [5]: Not Active

Compound: Cc1noc(C)c1-c1cc(Nc2cccnc2)c(=O)n(Cc2ccccc2)c1 [Example 194, 1-benzyl-5-(3,5-dimethylisoxazol-4-yl)-3-(pyridin-3-ylamino)pyridin-2(1H)-one]
c-myc activity (IC50 <30 μM) [1]: Active
ApoA-1 activity (EC170 <30 μM) [2]: Active
Cell Proliferation activity (IC50 <30 μM) [3]: Active
FRET activity (IC50 <30 μM) BRD4(1) [4]: Active
IL-6 activity (IC50 <30 μM) [5]: Active

Compound: Cc1noc(C)c1-c1cc(OCc2ccccc2)c(=O)n(Cc2ccccc2)c1 [Example 191, 1-benzyl-3-(benzyloxy)-5-(3,5-dimethylisoxazol-4-yl)pyridin-2(1H)-one]
c-myc activity (IC50 <30 μM) [1]: Active
ApoA-1 activity (EC170 <30 μM) [2]: Active
Cell Proliferation activity (IC50 <30 μM) [3]: Active
FRET activity (IC50 <30 μM) BRD4(1) [4]: Active
IL-6 activity (IC50 <30 μM) [5]: Not Active

Compound: Cc1noc(C)c1-c1cc(N)c(=O)n(Cc2ccc(F)c(F)c2)c1 [Example 211, 3-amino-1-(3,4-difluorobenzyl)-5-(3,5-dimethylisoxazol-4-yl)pyridin-2(1H)-one]
c-myc activity (IC50 <30 μM) [1]: Active
ApoA-1 activity (EC170 <30 μM) [2]: Active
Cell Proliferation activity (IC50 <30 μM) [3]: Active
FRET activity (IC50 <30 μM) BRD4(1) [4]: Active
IL-6 activity (IC50 <30 μM) [5]: Active

Compound: CCNc1cc(-c2c(C)noc2C)cn(Cc2ccccc2)c1=O [Example 186, 1-benzyl-5-(3,5-dimethylisoxazol-4-yl)-3-(ethylamino)pyridin-2(1H)-one]
c-myc activity (IC50 <30 μM) [1]: Active
ApoA-1 activity (EC170 <30 μM) [2]: Active
Cell Proliferation activity (IC50 <30 μM) [3]: Active
FRET activity (IC50 <30 μM) BRD4(1) [4]: Active
IL-6 activity (IC50 <30 μM) [5]: Active

Compound: Cc1noc(C)c1-c1cc(N2CCOCC2)c(=O)n(Cc2ccccc2)c1 [Example 190, 1-benzyl-5-(3,5-dimethylisoxazol-4-yl)-3-morpholinopyridin-2(1H)-one]
c-myc activity (IC50 <30 μM) [1]: Active
ApoA-1 activity (EC170 <30 μM) [2]: Active
Cell Proliferation activity (IC50 <30 μM) [3]: Active
FRET activity (IC50 <30 μM) BRD4(1) [4]: Active
IL-6 activity (IC50 <30 μM) [5]: Not Active

Compound: Cc1noc(C)c1-c1cc(N)c(=O)n(Cc2ccc(F)cc2Cl)c1 [Example 207, 3-amino-1-(2-chloro-4-fluorobenzyl)-5-(3,5-dimethylisoxazol-4-yl)pyridin-2(1H)-one]
c-myc activity (IC50 <30 μM) [1]: Active
ApoA-1 activity (EC170 <30 μM) [2]: Active
Cell Proliferation activity (IC50 <30 μM) [3]: Active
FRET activity (IC50 <30 μM) BRD4(1) [4]: Active
IL-6 activity (IC50 <30 μM) [5]: Active

Compound: Cc1noc(C)c1-c1cc(NC2CCCC2)c(=O)n(Cc2ccccc2)c1 [Example 208, 1-benzyl-3-(cyclopentylamino)-5-(3,5-dimethylisoxazol-4-yl)pyridin-2(1H)-one]
c-myc activity (IC50 <30 μM) [1]: Active
ApoA-1 activity (EC170 <30 μM) [2]: Active
Cell Proliferation activity (IC50 <30 μM) [3]: Active
FRET activity (IC50 <30 μM) BRD4(1) [4]: Active
IL-6 activity (IC50 <30 μM) [5]: Active

Compound: Cc1noc(C)c1-c1cc(-c2cccc(C(N)=O)c2)c(=O)n(Cc2ccccc2)c1 [Example 185, 3-(1-benzyl-5-(3,5-dimethylisoxazol-4-yl)-2-oxo-1,2-dihydropyridin-3-yl)benzamide]
c-myc activity (IC50 <30 μM) [1]: Active
ApoA-1 activity (EC170 <30 μM) [2]: Active
Cell Proliferation activity (IC50 <30 μM) [3]: Active
FRET activity (IC50 <30 μM) BRD4(1) [4]: Active
IL-6 activity (IC50 <30 μM) [5]: Not Active

Second part, led by results:

c-myc activity (IC50 <30 μM) [1]: Active
Cell Proliferation activity (IC50 <30 μM) [3]: Active
FRET activity (IC50 <30 μM) BRD4(1) [4]: Active
IL-6 activity (IC50 <30 μM) [5]: Active
Compound: Cc1noc(C)c1-c1cc(Nc2cncc(F)c2)c(=O)n(Cc2ccccc2)c1 [Example 223, 1-benzyl-5-(3,5-dimethylisoxazol-4-yl)-3-((5-fluoropyridin-3-yl)amino)pyridin-2(1H)-one]
ApoA-1 activity (EC170 <30 μM) [2]: Active

c-myc activity (IC50 <30 μM) [1]: Active
Cell Proliferation activity (IC50 <30 μM) [3]: Active
FRET activity (IC50 <30 μM) BRD4(1) [4]: Active
IL-6 activity (IC50 <30 μM) [5]: Active
Compound: Cc1noc(C)c1-c1cc(N)c(=O)n(Cc2ccc(OC(F)(F)F)cc2)c1 [Example 226, 3-amino-5-(3,5-dimethylisoxazol-4-yl)-1-(4-(trifluoromethoxy)benzyl)pyridin-2(1H)-one]
ApoA-1 activity (EC170 <30 μM) [2]: Active

c-myc activity (IC50 <30 μM) [1]: Active
Cell Proliferation activity (IC50 <30 μM) [3]: Active
FRET activity (IC50 <30 μM) BRD4(1) [4]: Active
IL-6 activity (IC50 <30 μM) [5]: Active
Compound: Cc1noc(C)c1-c1cc(N)c(=O)n(Cc2nccs2)c1 [Example 215, 3-amino-5-(3,5-dimethylisoxazol-4-yl)-1-(thiazol-2-ylmethyl)pyridin-2(1H)-one]
ApoA-1 activity (EC170 <30 μM) [2]: Active

c-myc activity (IC50 <30 μM) [1]: Active
Cell Proliferation activity (IC50 <30 μM) [3]: Active
FRET activity (IC50 <30 μM) BRD4(1) [4]: Active
IL-6 activity (IC50 <30 μM) [5]: Active
Compound: Cc1noc(C)c1-c1cc(N)c(=O)n(Cc2ccccc2Cl)c1 [Example 227, 3-amino-1-(2-chlorobenzyl)-5-(3,5-dimethylisoxazol-4-yl)pyridin-2(1H)-one]
ApoA-1 activity (EC170 <30 μM) [2]: Active
